According to US20100056622A1, “Methods of Using Ramelteon to Treat Patients Suffering from a Variety of Neurodegenerative Diseases” (priority 2008, published 2010):

Tests used:
[1] = tested on: patient with Probable Dementia with Lewy Bodies; assay: Case report Example 1: ramelteon in a patient with Probable Dementia with Lewy Bodies; type: in vivo, human; conditions: 2 week follow-up
Description: A person with a 4 year history of Probable Dementia with Lewy Bodies was treated with ramelteon as follows. The patient presented for treatment was experiencing poor sleep (i.e., interval insomnia with only 3-4 hours of sleep at night), fatigue, weight loss, poor concentration, anhedonia, irritability, social withdrawal, but no depressive mood or depressive cognitions. The patient would nap for an hour in the afternoons, consistent with Excessive Daytime Somnolence (EDS), nocturnal insomnia, or dopamine agonist therapy. They admitted to some anxiety daily in the afternoons lasting up to an hour, but had no somatic symptoms with this. Confusion was mild, but occurred once daily, and they had hallucinated only once, 6 weeks previously. There was significant nocturnal incontinence associated with the insomnia, with 4 or more episodes per night. The Neuropsychiatric Inventory Questionnaire (NPI-Q) was administered with the result being a score of 11 (delusions 1, agitation 2, irritability 1, nighttime behaviors 6, appetite 1). The […] al. Apathy Scale was also administered with the result being a score of 31. Ramelteon was administered beginning at 8 mg at bedtime and increased after 3 days to 16 mg by mouth each night at bedtime. At a 2 week follow-up, the patient began sleeping 7 hours each night, with only 2 episodes of incontinence at night.

[2] = tested on: patient with Probable Parkinson's Disease Dementia; assay: Case report Example 2: ramelteon in a patient with Probable Parkinson's Disease Dementia (person); type: in vivo, human; conditions: after 2 weeks
Description: A person with a 10 year history of Probable Parkinson's Disease Dementia was treated with ramelteon as follows. The patient presented for treatment was experiencing dementia EDS, REM behavior disorder (i.e., RBD, manifest in acting out their dreams while asleep), and symptoms of Parkinson's disease (e.g., bradykinesia, rigidity, resting tremor, and postural instability). […] After 2 weeks of treatment with ramelteon, 8 mg each night at bedtime, scores had improved on the ESS from 19 to 16, DRS-2 (DRS-2 Conceptualization score) improved from 35 to 38, Memory from 24 to 25, Total from 138 to 141, and Trails (Trails B 68 to 60, Trails B-Trails A 36 to 28). Thus, treatment with ramelteon led to demonstrable improvement in excessive daytime sleepiness, concept formation (i.e., similitudes and differences), memory (i.e., spontaneous recall, factual knowledge, and recognition), overall cognition, and measures of executive function.

[3] = tested on: patient with Probable Parkinson's Disease Dementia; assay: Case report Example 3: ramelteon in a patient with Parkinson Disease and Probable Parkinson's Disease Dementia (person); type: in vivo, human; conditions: 10 weeks
Description: A person with an 18 year history of Parkinson Disease with subsequent development of Probable Parkinson's Disease Dementia was treated with ramelteon. The patient presented was experiencing dementia (i.e., memory loss, inattention, and dysexecutive syndrome), initial and interval insomnia, and typical features of Parkinson's disease (i.e., bradykinesia, rigidity, resting tremor, and postural instability). The patient was started on ramelteon, 8 mg each night at bedtime, and was seen again 10 weeks later. DRS-2 Initiation (i.e., categorical naming reflecting temporal lobe function) improved from a score of 31 to 34, Controlled Oral Word Association Test S Subtest (i.e., naming reflecting frontal lobe function) from 14 to 17, CLOX 1 (i.e., reflecting executive function) from 6 to 8, and ADCS-ADL disability (i.e., reflecting ability to perform activities of daily living) from 43 to 47. Thus, treatment with ramelteon was associated with improvements in temporal and frontal lobe—related naming, executive function, and overall ability to cognitively function.

melatonin-1 receptor = melatonin-1 receptor (Homo sapiens, UniProt P48039); conditions: cited from earlier work
melatonin-2 receptor = molecular target: T1, melatonin-2 receptor (Homo sapiens, UniProt P49286); conditions: cited from earlier work
T1 sequence (P49286 1-362): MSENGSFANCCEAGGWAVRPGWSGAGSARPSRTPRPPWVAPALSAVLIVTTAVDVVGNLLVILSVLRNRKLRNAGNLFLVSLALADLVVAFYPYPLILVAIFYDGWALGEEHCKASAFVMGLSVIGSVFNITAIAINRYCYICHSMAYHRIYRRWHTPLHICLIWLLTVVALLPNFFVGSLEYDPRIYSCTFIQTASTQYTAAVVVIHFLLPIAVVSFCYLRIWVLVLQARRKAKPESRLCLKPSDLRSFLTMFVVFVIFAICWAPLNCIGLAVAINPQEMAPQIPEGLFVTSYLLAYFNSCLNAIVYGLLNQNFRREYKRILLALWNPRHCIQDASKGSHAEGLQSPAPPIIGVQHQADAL

[4] = tested on: mouse cerebellar granule cells; conditions: cited from earlier work
[5] = tested on: liver function after hemorrhagic shock and reperfusion; conditions: rats; cited from earlier work

melatonin-1 receptor, sequence (P48039 whole entry): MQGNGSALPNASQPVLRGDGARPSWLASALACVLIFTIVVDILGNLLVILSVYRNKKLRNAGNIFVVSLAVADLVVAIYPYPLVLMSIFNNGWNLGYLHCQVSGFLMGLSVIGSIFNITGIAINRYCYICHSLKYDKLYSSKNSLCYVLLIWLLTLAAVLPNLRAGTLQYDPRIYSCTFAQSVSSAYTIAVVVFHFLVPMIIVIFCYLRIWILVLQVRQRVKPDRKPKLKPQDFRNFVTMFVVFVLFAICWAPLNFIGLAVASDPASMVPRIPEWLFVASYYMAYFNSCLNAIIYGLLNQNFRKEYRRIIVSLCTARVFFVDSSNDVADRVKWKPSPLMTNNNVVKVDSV

Structure (SMILES): CCC(=O)NCC[C@@H]1CCc2ccc3c(c21)CCO3 [ramelteon, (S)—N-[2-(1,6,7,8-tetrahydro-2H-indeno-[5,4-b]furan-8-yl)ethyl]propionamide]
- MMSE scores [1]: did not show a change
- afternoon anxiety [1]: no longer of concern
- anhedonia [1]: absent
- appetite [1]: improved
- confusional episodes, intensity [1]: reduced in intensity
- hallucinations [1]: continued in remission
- irritability [1]: markedly better
- social withdrawal [1]: absent
- sleep each night ([1]; 8 mg then 16 mg by mouth at bedtime, before treatment 3-4 hours): 7 h
- NPI-Q appetite ([1]; before treatment 1): 1
- NPI-Q delusions ([1]; before treatment 1): 0
- NPI-Q agitation ([1]; before treatment 2): 0
- episodes of incontinence at night ([1]; before treatment 4 or more episodes per night): 2 episodes
- NPI-Q nighttime behaviors ([1]; before treatment 6): 1
- NPI-Q score (total) ([1]; before treatment 11): 2
- Apathy Scale (Starkstein et al.) score ([1]; before treatment 31): 37
- confusional episodes, frequency ([1]; before treatment once daily): half as frequent
- DRS-2 Memory score ([2]; 8 mg at bedtime, before treatment 24): 25
- DRS-2 Conceptualization score ([2]; 8 mg at bedtime, before treatment 35): 38
- Trails B-Trails A ([2]; 8 mg at bedtime, before treatment 36): 28
- Trails B ([2]; 8 mg at bedtime, before treatment 68): 60
- DRS-2 Total score ([2]; 8 mg at bedtime, before treatment 138): 141
- Epworth Sleepiness Scale (ESS) score ([2]; 8 mg each night at bedtime, before treatment 19): 16
- CLOX 1 ([3]; 8 mg at bedtime, before treatment 6): 8
- Controlled Oral Word Association Test S Subtest ([3]; 8 mg at bedtime, before treatment 14): 17
- ADCS-ADL activities of daily living score ([3]; 8 mg at bedtime, before treatment 43): 47
- DRS-2 Initiation score ([3]; 8 mg each night at bedtime, before treatment 31): 34
- agonist potency relative to melatonin (melatonin-1 receptor): more potent at these sites than melatonin itself
- agonist potency relative to melatonin (melatonin-2 receptor): more potent at these sites than melatonin itself
- concentrations of BDNF in neurons [4]: increased concentrations of BDNF in neurons
- recovery of the liver after reperfusion [5]: improved recovery of the liver after reperfusion
